Assay results as given in patent US20180353460A1, “METHODS OF TREATING UROLOGICAL DISORDERS USING SARMs” (priority 2014, published 2018).

Test system: prostate, seminal vesicles and levator ani muscle
Assay: Androgenic and anabolic activity in intact male rats, daily oral gavage
Format: in vivo, rat
Experimental: Male Sprague-Dawley rats weighing approximately 200 g were purchased from Harlan Bioproducts for Science (Indianapolis, Ind.). The animals were maintained on a 12 h light/dark cycle with food (7012C LM-485 Mouse/Rat Sterilizable Diet, Harlan Teklad, Madison, Wis.) and water available ad libitum. The anabolic and androgenic activity of compound of Formula VIII in intact animals was tested, as well as a dose response evaluation in acutely orchidectomized (ORX) animals. Regenerative effects of the compound of Formula VIII in chronically (9 days) ORX rats was similarly evaluated.
The test article for this study was weighed and dissolved in 10% DMSO (Fisher) diluted with PEG 300 (Acros Organics, NJ) for preparation of the appropriate dosage concentrations. The animals were housed in groups of 2 to 3 animals per cage. Animals were randomly assigned to one of seven groups consisting of 4 to 5 animals per group. Control groups (intact and ORX) were administered vehicle daily. Compound of Formula VIII was administered via oral gavage at doses of 0.01, 0.03, 0.1, 0.3, 0.75, and 1 mg/day to both intact and ORX groups. Where appropriate, animals were castrated on day one of the study. Treatment with compound of Formula VIII began nine days post ORX and was administered daily via oral gavage for fourteen days.
The animals were sacrificed under anesthesia (ketamine/xyalzine, 87:13 mg/kg) and body weights were recorded. In addition, ventral prostate, seminal vesicles, and levator ani muscle were removed, individually weighed, normalized to body weight, and expressed as a percentage of intact control. Student's T-test was used to compare individual dose groups to the intact control group. Significance was defined a priori as a P-value <0.05. Ventral prostate and seminal vesicle weights were evaluated as a measure of androgenic activity, whereas levator ani muscle weight was evaluated as a measure of anabolic activity. Blood was collected from the abdominal aorta, centrifuged, and sera were frozen at −80° C. prior to determination of serum hormone levels. Serum luteinizing hormone (LH) and follicle stimulating hormone (FSH) concentrations were determined.
Male Sprague-Dawley rats weighing approximately 200 g were purchased from Harlan Bioproducts for Science (Indianapolis, Ind.). The animals were maintained on a 12 h light/dark cycle with food (7012C LM-485 Mouse/Rat Sterilizable Diet, Harlan Teklad, Madison, Wis.) and water available ad libitum. Anabolic and androgenic activity of compound of Formula IX in intact animals was evaluated, and the dose response in acutely orchidectomized (ORX) animals was evaluated as well. Regenerative effects of compound of Formula IX in chronically (9 days) ORX rats were also assessed.
The compound was weighed and dissolved in 10% DMSO (Fisher) diluted with PEG 300 (Acros Organics, NJ) for preparation of the appropriate dosage concentrations. The animals were housed in groups of 2 to 3 animals per cage. Intact and ORX animals were randomly assigned to one of seven groups consisting of 4 to 5 animals per group. Control groups (intact and ORX) were administered vehicle daily. Compound of Formula IX was administered via oral gavage at doses of 0.01, 0.03, 0.1, 0.3, 0.75, and 1 mg/day to both intact and ORX groups.
Castrated animals (on day one of the study) were randomly assigned to dose groups (4-5 animals/group) of 0.01, 0.03, 0.1, 0.3, 0.75, and 1 mg/day, for dose-response evaluation. Dosing began nine days post ORX and was administered daily via oral gavage for fourteen days. The animals were sacrificed under anesthesia (ketamine/xyalzine, 87:13 mg/kg) after a 14-day dosing regimen, and body weights were recorded. In addition, ventral prostate, seminal vesicles, and levator ani muscle were removed, individually weighed, normalized to body weight, and expressed as a percentage of intact control. Student's T-test was used to compare individual dose groups to the intact control group. […]

Compound | levator ani muscle weight (0.01 mg/day) | prostate weight (0.01 mg/day) | levator ani muscle weight (0.03 mg/day) | prostate weight (0.03 mg/day) | levator ani muscle weight (0.1 mg/day) | prostate weight (0.1 mg/day) | levator ani muscle weight (0.3 mg/day) | prostate weight (0.3 mg/day) | levator ani muscle weight (0.75 mg/day) | prostate weight (0.75 mg/day) | levator ani muscle weight (1 mg/day) | prostate weight (1 mg/day) | seminal vesicle weight (0.01 mg/day) | seminal vesicle weight (0.03 mg/day) | seminal vesicle weight (0.1 mg/day) | seminal vesicle weight (0.3 mg/day) | seminal vesicle weight (0.75 mg/day) | seminal vesicle weight (1 mg/day)
C[C@](O)(COc1ccc(C#N)cc1)C(=O)Nc1ccc(C#N)c(Cl)c1 [VIII, (S)—N-(3-Chloro-4-cyanophenyl)-3-(4-cyanophenoxy)-2-hydroxy-2-methylpropanamide] | 107%±5% | 103%±10% | 103%±7% | 99%±10% | 97%±7% | 58%±10% | 103%±5% | 58%±15% | 118%±7% | 65%±20% | 118%±7% | 77%±23% | – | – | – | – | – | –
C[C@](O)(COc1ccc(C#N)c(F)c1)C(=O)Nc1ccc(C#N)c(C(F)(F)F)c1 [XIII, (S)—N-(4-cyano-3-(trifluoromethyl)phenyl)-3-(4-cyano-3-fluorophenoxy)-2-hydroxy-2-methylpropanamide] | 116%±7% | 98%±21% | 134%±8% | 99%±8% | 134%±21% | 85%±18% | 134%±11% | 98%±22% | 142%±10% | 126%±17% | 147%±10% | 126%±17% | 115%±12% | 109%±17% | 106%±13% | 121%±11% | 157%±5% | 136%±3%
C[C@](O)(COc1ccc(C#N)cc1)C(=O)Nc1ccc(C#N)c(C(F)(F)F)c1 [Compound IX, (S)—N-(4-Cyano-3-(trifluoromethyl)phenyl)-3-(4-cyanophenoxy)-2-hydroxy-2-methylpropanamide] | 120%±12% | 111%±21% | 116%±7% | 88%±15% | 128%±7% | 77%±17% | 134%±7% | 71%±16% | 125%±9% | 71%±10% | 146%±17% | 87%±13% | 94%±9% | 77%±11% | 80%±9% | 73%±12% | 77%±10% | 88%±14%
